Assay [1] addresses T1, human RORγt ligand binding domain (RORγt LBD) (Homo sapiens, UniProt P51449).
T1 construct: His-tag (N); TurboTEV protease cleavage site (ENLYFQG) (N); made in house; host or cells: E. coli (pHIS1, a modified pET expression vector)
T1 sequence (P51449 with tags, fused parts or gaps): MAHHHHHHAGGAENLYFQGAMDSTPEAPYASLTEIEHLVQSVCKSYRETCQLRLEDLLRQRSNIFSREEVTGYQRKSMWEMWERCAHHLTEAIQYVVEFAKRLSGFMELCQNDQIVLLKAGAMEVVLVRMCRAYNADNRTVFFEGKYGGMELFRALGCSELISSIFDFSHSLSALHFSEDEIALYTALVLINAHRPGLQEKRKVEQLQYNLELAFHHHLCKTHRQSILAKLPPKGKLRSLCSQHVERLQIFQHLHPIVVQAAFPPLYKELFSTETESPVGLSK
Put plainly: RORγt ThermoFluor assay. To be noted: estimated from thermal shift concentration response. On the procedure: This approach is applicable to a wide variety of systems, and rigorous in theoretical interpretation through quantitation of equilibrium binding constants (KD).
The shift in the melting point described as a ΔTm is proportional to the concentration and affinity of the ligand.
Protein and compound solutions are dispensed into black 384-well polypropylene PCR microplates (Abgene) and overlayed with silicone oil (1 μL, Fluka, type DC 200) to prevent evaporation.
Bar-coded assay plates are robotically loaded onto a thermostatically controlled PCR-type thermal block and then heated at a typical ramp-rate of 1° C./min for all experiments.
Fluorescence was measured by continuous illumination with UV light (Hamamatsu LC6) supplied via fiber optic and filtered through a band-pass filter (380-400 nm; >6 OD cutoff). Fluorescence emission of the entire 384-well plate was detected by measuring light intensity using a CCD camera (Sensys, Roper Scientific) filtered to detect 500±25 nm, resulting in simultaneous and independent readings of all 384 wells. Images were collected at each temperature, and the sum of the pixel intensity in a given area of the assay plate was recorded versus temperature. Reference wells contained RORγt without compounds, and the assay conditions were as follows: • 0.065 mg/mL RORγt • 60 μM 1,8-ANS • 100 mM Hepes, pH 7.0 • 10 mM NaCl • 2.5 mM GSH • 0.002% Tween-20
Project compounds were arranged in a pre-dosed mother plate (Greiner Bio-one) wherein compounds are serially diluted in 100% DMSO by 1:2 from a high concentration of 10 mM over 12 columns within a series (column 12 is a reference well containing DMSO, no compound). The compounds were robotically dispensed directly into assay plates (1×=46 nL) using a Hummingbird capillary liquid handling instrument (Digilab). Following compound dispense, protein and dye in buffer was added to achieve the final assay volume of 3 μL, followed by 1 μL of silicone oil.

A further assay addresses T2, full-length human RORγt (Homo sapiens, UniProt P51449).
T2 construct: expressed in transfected cells; host or cells: HEK293T, transiently transfected with pCMV-BD-ROR
T2 sequence (P51449 1-497 isoform P51449-2): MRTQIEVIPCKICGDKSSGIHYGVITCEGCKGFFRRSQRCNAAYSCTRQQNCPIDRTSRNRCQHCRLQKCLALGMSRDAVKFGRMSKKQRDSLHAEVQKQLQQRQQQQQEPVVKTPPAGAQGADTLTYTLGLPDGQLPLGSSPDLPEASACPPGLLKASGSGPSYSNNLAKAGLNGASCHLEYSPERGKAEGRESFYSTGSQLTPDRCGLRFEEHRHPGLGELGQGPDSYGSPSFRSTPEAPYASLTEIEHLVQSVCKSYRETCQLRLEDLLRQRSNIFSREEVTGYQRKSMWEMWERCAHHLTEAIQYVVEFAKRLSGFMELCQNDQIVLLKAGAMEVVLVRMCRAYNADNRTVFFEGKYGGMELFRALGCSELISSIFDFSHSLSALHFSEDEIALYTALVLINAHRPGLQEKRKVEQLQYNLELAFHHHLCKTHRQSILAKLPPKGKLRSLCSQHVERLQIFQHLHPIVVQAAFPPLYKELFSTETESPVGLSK
Briefly: RORγt (full-length human) Reporter Assay, Conditions A. It counts as cell-based. To be noted: for IC50: HEK293T cells, GAL4-DBD-RORγt, luciferase, read-out: RORγt (FL) Reporter Assay A, IC50; for inhibition at 2 µM: read-out: RORγt (FL) Reporter Assay A, % inhibition (* at 2 μM), 2 μM compound concentration (footnote *); for inhibition at 6 µM: read-out: RORγt (FL) Reporter Assay A, % inhibition @ 6 μM, 6 μM compound. On the procedure:
After overnight (16 to 20 hours) incubation, media were removed and cells were lysed with 20 μL 1× Passive Lysis Buffer (Promega) for 10-15 minutes. Luminescence was measured using a BMG LUMIstar OPTIMA plate reader, after addition of 75 μL/well firefly luciferase buffer, followed by 75 μL/well Renilla luciferase buffer. To calculate the effect of compounds on RORγt activity, firefly values were normalized against values of DMSO only and values of reference compound at saturating concentration, then further normalized against Renilla signals. IC50s were generated by plotting final Renilla normalized data against compound concentration and percent inhibition was calculated against DMSO control.
(A reporter such as luciferase makes a cellular process visible.)

A word on the Kd: it is the constant that tells how readily two partners part at equilibrium. What is called IC50 is the concentration that inhibits the measured activity by half. By inhibition is commonly meant the change of the read-out against control, counted positive when it falls.

As for `CC(C)(O)Cc1nnc(-c2nc(C(=O)N3CCC(F)CC3)c(-c3ccc(C(O)(C(F)(F)F)C(F)(F)F)c(Cl)c3Cl)s2)o1` [Example 3/4, (5-(2,3-Dichloro-4-(1,1,1,3,3,3-hexafluoro-2-hydroxypropan-2-yl)phenyl)-2-(5-(2-hydroxy-2-methylpropyl)-1,3,4-oxadiazol-2-yl)thiazol-4-yl)(4-fluoropiperidin-1-yl)methanone], the dissociation constant (Kd) in assay [1] was 24 nM. At full-length human RORγt, the half-maximal inhibitory concentration (IC50) came to 50 nM and the inhibition at 2 µM worked out at 106%.

As to `C[C@H](NS(=O)(=O)c1ccc(-c2sc(-c3nnc(CC(C)(C)O)o3)nc2C(=O)N2CC(F)(F)C[C@@H]2C)c(Cl)c1Cl)C(F)(F)F` [Example 3/2, 2,3-Dichloro-4-(4-((S)-4,4-difluoro-2-methylpyrrolidine-1-carbonyl)-2-(5-(2-hydroxy-2-methylpropyl)-1,3,4-oxadiazol-2-yl)thiazol-5-yl)-N—((S)-1,1,1-trifluoropropan-2-yl)benzenesulfonamide], in assay [1], the equilibrium dissociation constant (Kd) is 0.59 nM. Further, at full-length human RORγt, the half-maximal inhibitory concentration (IC50) was found to be 23 nM and the inhibition at 6 µM worked out at 107%.

`C[C@H](NS(=O)(=O)c1ccc(-c2sc(-c3cnn[nH]3)nc2C(=O)N2CCCC[C@@H]2C)c(Cl)c1Cl)C(F)(F)F` [Example 16, 2,3-Dichloro-4-(4-((S)-2-methylpiperidine-1-carbonyl)-2-(1H-1,2,3-triazol-5-yl)thiazol-5-yl)-N—((S)-1,1,1-trifluoropropan-2-yl)benzenesulfonamide]: in assay [1], the equilibrium dissociation constant (Kd) was 6.6 nM. In addition, at full-length human RORγt, the IC50 is 14 nM and the inhibition at 2 µM was 100%.

With `CC[C@H](NS(=O)(=O)c1ccc(-c2sc(-c3nnc(C(C)(C)O)o3)nc2C(=O)N2CCC(F)(F)CC2)c(Cl)c1F)C(F)(F)F` [Example 6/15, (S)-3-Chloro-4-(4-(4,4-difluoropiperidine-1-carbonyl)-2-(5-(2-hydroxypropan-2-yl)-1,3,4-oxadiazol-2-yl)thiazol-5-yl)-2-fluoro-N-(1,1,1-trifluorobutan-2-yl)benzenesulfonamide], the Kd in assay [1] was 0.89 nM. Besides, on full-length human RORγt, the half-inhibitory concentration (IC50) came out at 33 nM and the inhibition at 6 µM was 107%.

Take `CC(C)(O)Cc1nnc(-c2nc(C(=O)N3CC[C@H](F)C3)c(-c3ccc(C(O)(C(F)(F)F)C(F)(F)F)c(Cl)c3Cl)s2)o1` [Example 3/6, (S)-(5-(2,3-Dichloro-4-(1,1,1,3,3,3-hexafluoro-2-hydroxypropan-2-yl)phenyl)-2-(5-(2-hydroxy-2-methylpropyl)-1,3,4-oxadiazol-2-yl)thiazol-4-yl)(3-fluoropyrrolidin-1-yl)methanone]: the Kd in assay [1] is 76 nM. In addition, at full-length human RORγt, the 50% inhibitory concentration (IC50) turned out to be 370 nM and the inhibition at 6 µM stood at 104%.

For `Cc1c(S(=O)(=O)N[C@@H](C)C(F)(F)F)ccc(-c2sc(-c3nnc(C(C)(C)O)o3)nc2C(=O)N2CCC(F)(F)CC2)c1F` [Example 26, 4-(4-(4,4-Difluoropiperidine-1-carbonyl)-2-(5-(2-hydroxypropan-2-yl)-1,3,4-oxadiazol-2-yl)thiazol-5-yl)-3-fluoro-2-methyl-N—((S)-1,1,1-trifluoropropan-2-yl)benzenesulfonamide], in assay [1], the Kd is 5 nM. On full-length human RORγt, the IC50 was determined as 86 nM and the inhibition at 6 µM came to 107%.

In the case of `CC[C@H](NS(=O)(=O)c1ccc(-c2sc(-c3noc(CC(C)(C)C(=O)O)n3)nc2C(=O)N2CC(F)(F)C[C@@H]2C)c(C(F)F)c1Cl)C(F)(F)F` [Example 10/3, 3-(3-(5-(3-Chloro-2-(difluoromethyl)-4-(N—((S)-1,1,1-trifluorobutan-2-yl)sulfamoyl)phenyl)-4-((S)-4,4-difluoro-2-methylpyrrolidine-1-carbonyl)thiazol-2-yl)-1,2,4-oxadiazol-5-yl)-2,2-dimethylpropanoic acid], the Kd in assay [1] is 0.0036 nM. Moreover, at full-length human RORγt, the concentration for half-maximal inhibition (IC50) worked out at 50 nM and the inhibition at 6 µM is 97%.

Consider `CCN(CC)C(=O)c1nc(-c2cccc(C(C)(C)O)n2)sc1-c1ccc(S(=O)(=O)N[C@@H](C)C(F)(F)F)c(Cl)c1Cl` [Example 17, (S)-5-(2,3-Dichloro-4-(N-(1,1,1-trifluoropropan-2-yl)sulfamoyl)phenyl)-N,N-diethyl-2-(6-(2-hydroxypropan-2-yl)pyridin-2-yl)thiazole-4-carboxamide], for which the Kd in assay [1] was 7.1 nM. Besides, on full-length human RORγt, the half-maximal inhibitory concentration (IC50) worked out at 14 nM and the inhibition at 2 µM turned out to be 104%.

For `C[C@H]1CCCCN1C(=O)c1nc(-c2nnc(CC(C)(C)C(=O)O)o2)sc1-c1ccc(C(O)(C(F)(F)F)C(F)(F)F)c(Cl)c1Cl` [Example 2/1, (S)-3-(5-(5-(2,3-Dichloro-4-(1,1,1,3,3,3-hexafluoro-2-hydroxypropan-2-yl)phenyl)-4-(2-methylpiperidine-1-carbonyl)thiazol-2-yl)-1,3,4-oxadiazol-2-yl)-2,2-dimethylpropanoic acid], the dissociation constant (Kd) in assay [1] is 0.98 nM. Also, on full-length human RORγt, the IC50 was 230 nM and the inhibition at 6 µM stood at 102%.

As to `CC[C@H](NS(=O)(=O)c1ccc(-c2sc(-c3nnc(C(C)(C)O)o3)nc2C(=O)N2CCC(F)(F)CC2)c(F)c1C(F)F)C(F)(F)F` [Example 6/16, (S)-2-(Difluoromethyl)-4-(4-(4,4-difluoropiperidine-1-carbonyl)-2-(5-(2-hydroxypropan-2-yl)-1,3,4-oxadiazol-2-yl)thiazol-5-yl)-3-fluoro-N-(1,1,1-trifluorobutan-2-yl)benzenesulfonamide], the Kd in assay [1] is 0.47 nM. Also, at full-length human RORγt, the 50% inhibitory concentration (IC50) came to 38 nM and the inhibition at 6 µM worked out at 104%.

Consider `C[C@H](NS(=O)(=O)c1ccc(-c2sc(-c3nnc(CC(C)(C)O)o3)nc2C(=O)N2CCC(F)(F)CC2)c(Cl)c1Cl)C(F)(F)F` [Example 3, (S)-2,3-Dichloro-4-(4-(4,4-difluoropiperidine-1-carbonyl)-2-(5-(2-hydroxy-2-methylpropyl)-1,3,4-oxadiazol-2-yl)thiazol-5-yl)-N-(1,1,1-trifluoropropan-2-yl)benzenesulfonamide], for which the Kd in assay [1] was 1.6 nM. Also, at full-length human RORγt, the IC50 was found to be 26 nM and the inhibition at 6 µM was 107%.

Consider `CC[C@H](NS(=O)(=O)c1ccc(-c2sc(-c3nnc(CC(C)(C)C(=O)O)o3)nc2C(=O)N2CCCC[C@@H]2C)c(Cl)c1Cl)C(F)(F)F` [Example 2, 3-(5-(5-(2,3-Dichloro-4-(N—((S)-1,1,1-trifluorobutan-2-yl)sulfamoyl)phenyl)-4-((S)-2-methylpiperidine-1-carbonyl)thiazol-2-yl)-1,3,4-oxadiazol-2-yl)-2,2-dimethylpropanoic acid], for which, in assay [1], the Kd is 0.003 nM. In addition, at full-length human RORγt, the IC50 turned out to be 100 nM and the inhibition at 6 µM is 104%.
